In patent US5260275A, “Hypoglycemics” (Amylin Pharmaceuticals, Inc., priority 1990, dated 1993):
pEC50: −log10 of the molar value.

Assays:
[1] = system: isolated rat islets of Langerhans; assay: Glucose-stimulated insulin secretion from isolated rat islets of Langerhans; format: cell-based; conditions: substance 650 nmol/L; glucose 10 mmol/L
Description: The following experiments illustrate the fact that subpeptides of amylin can act to reduce the amount of insulin produced by isolated islets of Langerhans in response to a standard glucose challenge. Similar results have been obtained using whole amylin. All experiments were performed by known methods used in experimental practice. See, e.g., Lacey P. E., and Kostianovsky M., Method for the Isolation of Intact Islets of Lanaerhans from the Rat Pancreas. Diabetes 1967; 16:35-39.
Briefly, rats were killed, and islets of Langerhans were isolated from their pancreases. Experiments were performed either with freshly isolated islets or after overnight incubation of islets (23 h) in standard culture medium and conditions at 37° C. Synthetic amylin peptide 27-37 or synthetic calcitonin gene related peptide (CGRP) was dissolved in a 1.0 mmol/L citric acid/sodium citrate buffer, pH 3.0, and the concentration of the amylin 27-37 was verified by quantitative amino acid analysis. See, e.g., Cooper G. J. S. et al., Proc Natl Acad Sci USA 1987; 84:8628-8632. […] Stimulation of islets was carried out at the standard stimulatory glucose concentration of 10 mmol/L.
Production of insulin is expressed as μU/islet/h. All experiments were performed with five replicates per point. The integrity of the islet response was assessed by comparing the responses after stimulation of different aliquots of islets by two and ten mmol/L glucose, respectively, and the strength of the inhibitory response was judged against that induced by 1 μg/ml (650 nmol/L) somatostatin. Somatostatin is a 14 amino acid peptide which is a known, potent inhibitor of the insulin secretory response of islet B-cells to glucose. Arimura A. Biomed res1981; 2:233-257. […] Petterson M., Ahren B., Bottcher G., Sundler F., Endocrinology 1986; 119:865-869.
The results are shown in TABLE 5 below and all results are expressed as standard error of the mean (s.e.m.). The significance of differences between the means of groups is assessed by the t-test. The result of stimulation by 10 mmol/L glucose is compared with the results of stimulation at 2 mmol/L glucose. In all other experimental conditions, the significance of the inhibitory effect is measured against the effect of 10 mmol/L glucose alone.

HIT T-15 cells [2] = assay: Amylin/insulin (A/I) secretion ratio of HIT T-15 cells; format: cell-based, hamster
Description: (§1) HIT T-15 cells (HIT cells; American Type Tissue Collection, Rockville, Md.) were subcultured weekly in Ham's F-12 medium (Irvine Scientific, Santa Ana, Calif.) containing 10% horse serum (Gemini Bioproducts, Calabasas, Calif.), 2.5% fetal bovine serum (FBS; Gemini), 2 mM L-glutamine, 10^5 IU penicillin G/1, 100 mg streptomycin/1 and 10.0 mM glucose. Cells were maintained at 37° C. and 5% C02/ 95% humidified air and medium was replaced every 2 to 3 days. All experiments were performed with cells from passages 62 to 71.
Five days before each secretion study, cells were subcultured at 0.26×10^6 cells per 0.8 ml medium per well in 24-well tissue culture plates. Medium was replaced on day 3. On day 5 cells were washed twice with […] 1.0 ml Krebs-Ringer buffer (KRB) containing 119 mM NaCl, 4.74 mM KCl, 2.54 mM CaCl2, 1.19 mM KH2 PO4, 25 mM NaHCO3, 10 mM HEPES and 0.1% protease-free bovine serum albumin (Cohn fraction V; Sigma Chemical Co., St. Louis Mo.) at pH 7.4. After washing 1.0 ml KRB was added and plates were incubated for 30 minutes at 37° C. in equilibrium with air. […] After a 60 minute incubation with test substance, supernatants were centrifuged to remove cell debris, then stored at -20° C. Supernatants were analyzed for insulin and amylin content by radioimmunoassay within one week of collection. Three wells per plate were trypsinized and cells per well were quantitated using a Coulter Counter (Model Zf, Coulter Electronics, Hialeah, Fla.). Data are expressed as the percentage change in pmoles of hormone released/10^6 cells, relative to controls (absence of test substance) or as the moles of amylin released/mole of insulin/10^6 cells/hour (A/I ratio).
Immunoreactive insulin content in supernatants was measured using a commercial radioimmunoassay (IM.78; Amersham, Arlington Heights, Ill.). Human insulin standards were prepared in KRB. […] The radioimmunoassay for immunoreactive amylin was as described in Example 7 above.

HIT T-15 cells [3] = assay: Insulin release from HIT T-15 cells; format: cell-based, hamster
Description: as §1, with “MD; R. F. Santerre, et al. (1981) Proc. Nat. Acad. Sci. USA 78, 4339-4343.)” for “Md.)”, “L-glutamine,” for “L-glutamine, 10^5 IU penicillin G/1, 100 mg streptomycin/1”, “CO2 /” for “C02/”, “66” for “62”
(§2) Amylin and insulin secretion were measured using reagents of analytical grade unless otherwise indicated. The secretion medium was a Krebs-Ringer buffer (KRB) containing 119 mM NaCl, 4.74 mM KCl, 2,54 mM CaCl2, 1.19 mM MgSO4, 1.19 mM KH2 PO4, 25 mM NaHCO3, 10 mM HEPES and 0.1% protease-free bovine serum albumin (Cohn fraction V; Sigma Chemical Co., St. Louis Mo.) at pH 7.4. Glibenclamide (Sigma) was initially dissolved in ethanol (50 mg/ml) then diluted to working concentrations in KRB. […] Tolbutamide (Sigma) was initially dissolved in dimethylsulfoxide (50 mg/ml). […] Metformin (Sigma) was diluted in KRB.
(§3) Five days before each secretion study cells were subcultured at 0.26×10^6 cells/0.8 ml medium/well in 24-well tissue culture plates (Corning Glass Works, Corning N.Y.). Medium was replaced on day 3. On day 5 cells were washed twice with 1.0 ml KRB then incubated in 1.0 ml KRB (30 minutes, 37° C.) in equilibrium with air. Cells were washed twice more prior to addition of 0.5 ml KRB containing the indicated concentrations of glucose, metformin, tolbutamide and glibenclamide. After a 60 minute incubation with test substance or substances, supernatants were centrifuged (5 minutes, 500×g, 5° C.; GPKR centrifuge, Beckman Instruments, Inc., Palo Alto, Calif.) to remove cell debris, then stored in polypropylene micro test tubes (Brinkman Instrument Co., Westbury, N.Y.) at -20° C. until analyzed by radioimmunoassay. Supernatants were analyzed for insulin and amylin content within one week of collection. Three wells per plate were randomly selected for cell quantitation. Cells were incubated with 75 μg trypsin and 30 μg EDTA in 150 μl normal saline (8 minutes, 37° C.), then counted on a Coulter Counter (Model Zf, Coulter Electronics, Hialeah, Fla.).
(§4) Immunoreactive insulin content in supernatants was measured using a commercial radioimmunoassay (IM.78; Amersham, Arlington Heights, Ill.). […] The radioimmunoassay for immunoreactive amylin was as follows. Assay diluent was phosphate-buffered saline (PBS; 137 mM NaCl, 2.68 mM KCl, 1.47 mM KH2 PO4, 6.65 mM Na2 HPO4) containing 0.1% Triton-X 100 (v/v), 0.01% NaN3 (w/v), and 0.1% gelatin (v/v; teleostean, 45% aqueous solution, Sigma) at pH 7.4. All incubations were performed at 4° C. ^125 I-[Tyr 37]-human synthetic amylin tracer was iodinated by the chloramine-T method and purified on a C18 Sep-Pak (Waters Associates, Milford, Mass.). Specific activity was approximately 500 μCi/μg.
Data in FIGS. 3 and 4 are shown as the mean±S.D. of 4 replicate samples. An unpaired Student's t-test was used to compare secretion in the absence and presence of hypoglycemic agent (Statview 512+ program; Brain Power, Inc., Calabasas, Calif.).
as §1

HIT T-15 cells [4] = assay: Amylin release from HIT T-15 cells; format: cell-based, hamster
Description: as §1, with “MD; R. F. Santerre, et al. (1981) Proc. Nat. Acad. Sci. USA 78, 4339-4343.)” for “Md.)”, “L-glutamine,” for “L-glutamine, 10^5 IU penicillin G/1, 100 mg streptomycin/1”, “CO2 /” for “C02/”, “66” for “62”
as §2, §3, §4
Standards and unknowns were run in triplicate or duplicate respectively. After an 18 hour incubation, 100 μl of tracer containing 20,000 dpm was added and samples were incubated an additional 18 hours. To ensure complete immunoprecipitation of amylin:antibody complexes, 100 μl of rabbit gamma globulin (0.35 mg/ml, Scantibodies Laboratory, Santee, Calif.) and 100 μl of goat anti-rabbit gamma globulin (0.50 mg/ml, purified grade; Scantibodies) were added. After a 15 minute incubation, 1.0 ml 2% polyethylene glycol (w/v. MW 8,000; Sigma) in assay buffer was added and samples were centrifuged (30 minutes, 1500×g, 5° C.). Samples were decanted and pellets were counted on a gamma counter (model 1277; LKB Wallac, Turku, Finland).
Data in FIGS. 3 and 4 are shown as the mean±S.D. of 4 replicate samples.

[5] = target: T1, insulin receptor on red blood cells (Homo sapiens, UniProt P06213); assay: Displacement of insulin from its receptor on red blood cells; format: binding
T1 construct: endogenous in cells; host or cells: red blood cells

[6] = cells challenged with 10 mM glucose plus 15 mM arginine
[7] = 10 mM glucose or 15 mM arginine alone or in combination, n=3

C[C@H](N)C(=O)NCC(=O)N[C@H]1CSSC[C@@H](C(=O)O)NC(=O)[C@H](CO)NC(=O)[C@H]([C@@H](C)O)NC(=O)[C@H](Cc2ccccc2)NC(=O)[C@H]([C@@H](C)O)NC(=O)[C@H](CCCCN)NC(=O)[C@H](Cc2c[nH]c3ccccc23)NC(=O)[C@H](Cc2ccccc2)NC(=O)[C@H](Cc2ccccc2)NC(=O)[C@H](CC(N)=O)NC(=O)[C@H](CCCCN)NC1=O [Somatostatin]
Insulin production [1]: 44 μU/islet/hr
Relative insulin secretion inhibition (percentage by which insulin production is reduced from control) [1]: 45%
A/I ratio (HIT T-15 cells [2]; over the somatostatin concentration range tested, 10 mM glucose plus 15 mM arginine): 0.36±0.02
Effect on insulin release (in words) (HIT T-15 cells [3]; [6]): suppressed both amylin and insulin release
Effect on amylin release (in words) (HIT T-15 cells [4]; [6]): suppressed both amylin and insulin release

N=C(N)NCCC[C@H](N)C(=O)O [arginine]
A/I ratio (HIT T-15 cells [2]; [7]): 0.41±0.05
Mean A/I ratio (HIT T-15 cells [2]; over the arginine concentration range tested): 0.44±0.02
Effect on insulin secretion (in words) (HIT T-15 cells [3]; increasing arginine, 60 min): stimulated amylin and insulin secretion in a dose-dependent manner
Effect on amylin secretion (in words) (HIT T-15 cells [4]; increasing arginine, 60 min): stimulated amylin and insulin secretion in a dose-dependent manner

O=C[C@H](O)[C@@H](O)[C@H](O)[C@H](O)CO [glucose]
A/I ratio (HIT T-15 cells [2]; [7]): 0.32±0.01
Increase in insulin secretion (HIT T-15 cells [3]; 10 mM glucose, control (no drug) conditions): 4 to 5 fold
Concentration of maximum insulin secretion (HIT T-15 cells [3]; 60 min incubation): 20 mM
pEC50 (HIT T-15 cells [3]; Mesocricetus auratus, HIT-T15, 1 h, 60 min incubation, read-out: Half-maximal response (EC50), insulin secretion): ~2.70
Increase in secretion of amylin (HIT T-15 cells [4]; 10 mM glucose, control conditions): 2.5 to 4 fold
Concentration of maximum amylin secretion (HIT T-15 cells [4]; 60 min incubation): 20 mM
pEC50 (HIT T-15 cells [4]; Mesocricetus auratus, HIT-T15, 1 h, 60 min incubation, read-out: Half-maximal response (EC50), amylin secretion): ~2.70

amylin: 37-residue peptide hormone from pancreatic amyloid; preparation not specified at this place (KCNTATCATQRLANFLVHSSNNFGAILSSTNVGSNTY; Islet amyloid polypeptide; UniProt P10997 34-70, looked up)
Displacement of insulin from its receptor (in words) [5]: not capable of significantly displacing insulin
